According to ChEMBL document CHEMBL5050833, “Novel cyclic trex1 inhibitors” (2020):

Columns and labels:
[1] = Inhibition of human TREX1 exonuclease activity using labeled DNA oligonucleotide as substrate incubated for 30 mins and measured after 45 mins by fluorescence assay
[2] = Inhibition of mouse TREX1 exonuclease activity using labeled DNA oligonucleotide as substrate incubated for 30 mins and measured after 45 mins by fluorescence assay
[3] = organism: Homo sapiens; assay: Binding affinity to recombinant human TREX1 incubated in PBS and measured by thermal shift binding assay; further: test concentration or dose not given here
[4] = organism: Homo sapiens; assay: Binding affinity to recombinant human TREX1 incubated in assay buffer and measured by thermal shift binding assay; further: test concentration or dose not given here
[5] = organism: Mus musculus; assay: Binding affinity to recombinant mouse TREX1 incubated in PBS and measured by thermal shift binding assay; further: test concentration or dose not given here
[6] = organism: Mus musculus; assay: Binding affinity to recombinant mouse TREX1 incubated in assay buffer and measured by thermal shift binding assay; further: test concentration or dose not given here

Row | SMILES | IC50 [1] | IC50 [2] | other results
1 | N[C@@H]1C[C@H]2C(=O)N([C@H](CCC(=O)O)C(=O)NCc3ccc(Cl)c(Cl)c3)CCC(CCc3ccccc3)N2C1 (stereo in doubt; form 1) | in the range around 10000 nM | in the range around 10000 nM | 
2 | N[C@@H]1C[C@H]2C(=O)N([C@H](CC(=O)O)C(=O)NCc3ccc(Cl)c(Cl)c3)CCC(CCc3ccccc3)N2C1 (stereo not given in full) | < 1000 nM | < 1000 nM | 
3 | CC(C)C[C@H](C(=O)NCc1ccccc1Cl)N1CCC(CCc2ccccc2)N2C[C@H](N)C[C@H]2C1=O (stereo not given in full) | in the range around 1000 nM | in the range around 10000 nM | 
4 | CC(C)C[C@H](C(=O)NCc1cncs1)N1CCC(CCc2ccccc2)N2C[C@H](N)C[C@H]2C1=O (stereo not given in full) | in the range around 1000 nM | in the range around 10000 nM | 
5 | C[C@H](C(=O)NCc1ccc(C(F)(F)F)cc1)N1CCC(CCc2ccccc2)N2C[C@H](N)C[C@H]2C1=O (stereo not given in full) | < 1000 nM | < 1000 nM | 
6 | CC(C)C[C@H](C(=O)NCc1ccc(Cl)c(Cl)c1)N1CCC(CSc2ccccc2)N2C[C@H](N)C[C@H]2C1=O (stereo not given in full) | < 1000 nM | < 1000 nM | 
7 | CC(C)C[C@H](C(=O)NCc1ccc(Cl)cc1)N1CCC(C[S@+]([O-])c2ccccc2)N2C[C@H](N)C[C@H]2C1=O (stereo not given in full) | < 1000 nM | in the range around 1000 nM | 
8 | CC(=O)N[C@@H]1C[C@H]2C(=O)N([C@H](CC(C)C)C(=O)NCc3ccc(Cl)c(Cl)c3)CCC(CCc3ccccc3)N2C1 (stereo not given in full) | in the range around 1000 nM | in the range around 10000 nM | 
9 | CC(C)C[C@H](C(=O)NCc1ccc(F)cc1)N1CCC(CCc2ccccc2)N2C[C@H](N)C[C@H]2C1=O (stereo not given in full) | < 1000 nM | in the range around 1000 nM | 
10 | CC(C)C[C@H](C(=O)NCc1cnccn1)N1CCC(CCc2ccccc2)N2C[C@H](N)C[C@H]2C1=O (stereo not given in full) | in the range around 1000 nM | in the range around 10000 nM | 
11 | N[C@@H]1C[C@H]2C(=O)N([C@H](CCC(=O)O)C(=O)NCc3ccc(C(F)(F)F)cc3)CCC(CCc3ccccc3)N2C1 (stereo in doubt; form 2) [listing 1 of 2 here] |  |  | ΔTm [3]: > 8 °C; ΔTm [4]: > 8 °C; ΔTm [5]: 4 °C; ΔTm [6]: 4 °C
12 | CC(C)C[C@H](C(=O)NCc1ccc(Cl)cc1)N1CCC(C[S@@+]([O-])c2ccccc2)N2C[C@H](N)C[C@H]2C1=O (stereo not given in full) | < 1000 nM | in the range around 1000 nM | 
13 | CC(C)C[C@H](C(=O)N[C@H](C)c1ccccc1)N1CCC(CCc2ccccc2)N2C[C@H](N)C[C@H]2C1=O (stereo not given in full) | in the range around 10000 nM | in the range around 10000 nM | 
14 | CC(C)C[C@H](C(=O)N[C@@H](C)c1ccccc1)N1CCC(CCc2ccccc2)N2C[C@H](N)C[C@H]2C1=O (stereo not given in full) | in the range around 10000 nM | in the range around 10000 nM | 
15 | N[C@@H]1C[C@H]2C(=O)N([C@H](CCC(=O)O)C(=O)NCc3ccc(Cl)c(Cl)c3)CCC(COc3ccccc3)N2C1 (stereo not given in full) | < 1000 nM | < 1000 nM | 
16 | CC(C)C[C@H](C(=O)NCc1cccc(Cl)c1)N1CCC(CCc2ccccc2)N2C[C@H](N)C[C@H]2C1=O (stereo not given in full) | < 1000 nM | in the range around 1000 nM | 
17 | CC(C)C[C@H](C(=O)NCc1ccc(Cl)c(Cl)c1)N1CCC(CCc2ccccc2)N2C[C@H](N(C)C)C[C@H]2C1=O (stereo not given in full) | in the range around 10000 nM | > 100000 nM | 
18 | N[C@@H]1C[C@H]2C(=O)N([C@H](CCc3nnn[nH]3)C(=O)NCc3ccc(Cl)c(Cl)c3)CCC(CCc3ccccc3)N2C1 (stereo not given in full) | < 1000 nM | < 1000 nM | 
19 | N[C@@H]1C[C@H]2C(=O)N([C@H](CCc3nsc(=O)[nH]3)C(=O)NCc3ccc(Cl)c(Cl)c3)CCC(CCc3ccccc3)N2C1 (stereo not given in full) | < 1000 nM | < 1000 nM | 
20 | CC(C)C[C@H](C(=O)NCC1CCCCC1)N1CCC(CCc2ccccc2)N2C[C@H](N)C[C@H]2C1=O (stereo not given in full) | in the range around 10000 nM | in the range around 10000 nM | 
21 | CC(C)C[C@H](C(=O)NCc1ccccc1)N1CCC(CCc2ccccc2)N2C[C@H](N)C[C@H]2C1=O (stereo not given in full) | in the range around 1000 nM | in the range around 10000 nM | 
22 | Cc1ccc(CNC(=O)[C@@H](CC(C)C)N2CCC(CCc3ccccc3)N3C[C@H](N)C[C@H]3C2=O)cc1 (stereo not given in full) | in the range around 1000 nM | in the range around 1000 nM | 
23 | CC(C)C[C@H](C(=O)NCc1ccc(Cl)c(Cl)c1)N1CCC(COc2ccccc2)N2C[C@H](N)C[C@H]2C1=O (stereo not given in full) | < 1000 nM | in the range around 1000 nM | 
24 | CC(C)C[C@H](C(=O)NCc1ccc(Cl)c(Cl)c1)N1CC(CCc2ccccc2)N2C[C@H](N)C[C@H]2C1=O (stereo not given in full) | in the range around 10000 nM | in the range around 10000 nM | 
25 | CC(C)C[C@H](C(=O)NCc1ccc(Cl)c(Cl)c1)N1CCC(C)N2C[C@H](N)C[C@H]2C1=O (stereo not given in full) | in the range around 10000 nM | in the range around 10000 nM | 

Row | SMILES | IC50 [1] | IC50 [2] | other results
26 | CC(C)C[C@H](CNC(=O)c1ccc(Cl)cc1)N1CCC(CCc2ccccc2)N2C[C@H](N)C[C@H]2C1=O (stereo not given in full) | in the range around 1000 nM | in the range around 1000 nM | 
27 | N[C@@H]1C[C@H]2C(=O)N([C@H](CCC(=O)O)C(=O)NCc3ccc(Cl)c(Cl)c3)CCC(CCc3ccccc3)N2C1 (stereo in doubt; form 2) [listing 1 of 2 here] |  |  | ΔTm [4]: > 8 °C; ΔTm [5]: > 8 °C
28 | CC(C)C[C@H](C(=O)NCc1ccc(Cl)c(Cl)c1)N1CCC(Cc2ccccc2)N2C[C@H](N)C[C@H]2C1=O (stereo not given in full) | in the range around 1000 nM | in the range around 1000 nM | 
29 | CC(C)C[C@H](C(=O)NCc1cc(Cl)cc(Cl)c1)N1CCC(CCc2ccccc2)N2C[C@H](N)C[C@H]2C1=O (stereo not given in full) | < 1000 nM | in the range around 1000 nM | 
30 | CC(C)C[C@H](C(=O)NCCc1ccccc1)N1CCC(CCc2ccccc2)N2C[C@H](N)C[C@H]2C1=O (stereo not given in full) | in the range around 1000 nM | in the range around 10000 nM | 
31 | CC(C)C[C@H](C(=O)N(C)Cc1ccc(C(F)(F)F)cc1)N1CCC(CCc2ccccc2)N2C[C@H](N)C[C@H]2C1=O (stereo not given in full) | in the range around 1000 nM | in the range around 1000 nM | 
32 | CC(C)C[C@H](C(=O)NCc1ccc(Cl)c(Cl)c1)N1CCC(CCc2ccc(Cl)cc2)N2C[C@H](N)C[C@H]2C1=O (stereo not given in full) | < 1000 nM | in the range around 1000 nM | 
33 | CC(C)C[C@H](C(=O)NCCc1ccc(Cl)c(Cl)c1)N1CCC(CCc2ccccc2)N2C[C@H](N)C[C@H]2C1=O (stereo not given in full) | < 1000 nM | in the range around 1000 nM | 
34 | N[C@@H]1C[C@H]2C(=O)N([C@H](CCC(=O)O)C(=O)NCc3ccc(Cl)c(Cl)c3)CCC(CCc3ccccc3)N2C1 (stereo in doubt; form 2) [listing 2 of 2 here] | < 1000 nM | < 1000 nM | 
35 | CC(C)C[C@H](C(=O)NCc1ccc(Cl)cc1)N1CCC(CCc2ccccc2)N2C[C@H](N)C[C@H]2C1=O (stereo not given in full) | < 1000 nM | in the range around 1000 nM | 
36 | N[C@@H]1C[C@H]2C(=O)N([C@H](CCC(=O)O)C(=O)NCc3ccc(C(F)(F)F)cc3)CCC(CCc3ccccc3)N2C1 (stereo in doubt; form 1) | in the range around 10000 nM | in the range around 10000 nM | 
37 | CC(C)C[C@H](C(=O)NCc1cscn1)N1CCC(CCc2ccccc2)N2C[C@H](N)C[C@H]2C1=O (stereo not given in full) | in the range around 1000 nM | in the range around 10000 nM | 
38 | NC(=O)CC[C@H](C(=O)NCc1ccc(Cl)c(Cl)c1)N1CCC(CCc2ccccc2)N2C[C@H](N)C[C@H]2C1=O (stereo not given in full) | < 1000 nM | < 1000 nM | 
39 | N[C@@H]1C[C@H]2C(=O)N([C@H](CCC(=O)O)C(=O)NCc3ccc(C(F)(F)F)cc3)CCC(CCc3ccccc3)N2C1 (stereo in doubt; form 2) [listing 2 of 2 here] | < 1000 nM | < 1000 nM | 
40 | CC(C)C[C@H](C(=O)NCc1ccc(Cl)c(Cl)c1)N1CCC(CCc2ccccc2)N(CCN)CC1=O (stereo not given in full) | in the range around 1000 nM | in the range around 10000 nM | 
41 | CC(C)C[C@H](C(=O)NCc1ccc(Cl)cc1Cl)N1CCC(CCc2ccccc2)N2C[C@H](N)C[C@H]2C1=O (stereo not given in full) | < 1000 nM | in the range around 1000 nM | 
42 | CCC[C@H](C(=O)NS(=O)(=O)c1ccc(Cl)c(Cl)c1)N1CCC(CCc2ccccc2)N2C[C@H](N)C[C@H]2C1=O (stereo not given in full) | < 1000 nM | in the range around 1000 nM | 
43 | Cc1nnc(CC[C@H](C(=O)NCc2ccc(Cl)c(Cl)c2)N2CCC(CCc3ccccc3)N3C[C@H](N)C[C@H]3C2=O)[nH]1 (stereo not given in full) | < 1000 nM | < 1000 nM | 
44 | N#CCC[C@H](C(=O)NCc1ccc(Cl)c(Cl)c1)N1CCC(CCc2ccccc2)N2C[C@H](N)C[C@H]2C1=O (stereo not given in full) | < 1000 nM | < 1000 nM | 
45 | CC(C)C[C@H](C(=O)NS(=O)(=O)c1ccccc1)N1CCC(CCc2ccccc2)N2C[C@H](N)C[C@H]2C1=O (stereo not given in full) | in the range around 1000 nM | in the range around 1000 nM | 
46 | CC(C)C[C@H](C(=O)NCc1ccc(C#N)cc1)N1CCC(CCc2ccccc2)N2C[C@H](N)C[C@H]2C1=O (stereo not given in full) | in the range around 1000 nM | in the range around 10000 nM | 
47 | CC(C)C[C@H](C(=O)NCc1ccc(C(F)(F)F)cc1)N1CCC(CCc2ccccc2)N2C[C@H](N)C[C@H]2C1=O (stereo not given in full) | < 1000 nM | < 1000 nM | 
48 | CC(C)C[C@H](C(=O)NCc1ccc(Cl)cc1)N1CCC(CS(=O)(=O)c2ccccc2)N2C[C@H](N)C[C@H]2C1=O (stereo not given in full) | in the range around 1000 nM | in the range around 10000 nM | 
49 | CC(C)C[C@H](C(=O)NS(=O)(=O)c1ccc(Cl)c(Cl)c1)N1CCC(CCc2ccccc2)N2C[C@H](N)C[C@H]2C1=O (stereo not given in full) | < 1000 nM | < 1000 nM | 
